One assay addresses T1, human recombinant COX-2 (Homo sapiens, UniProt P35354).
T1 construct: purchased Cayman Chemical Co., Ann Arbor, MI, USA
T1 sequence (P35354 18-604): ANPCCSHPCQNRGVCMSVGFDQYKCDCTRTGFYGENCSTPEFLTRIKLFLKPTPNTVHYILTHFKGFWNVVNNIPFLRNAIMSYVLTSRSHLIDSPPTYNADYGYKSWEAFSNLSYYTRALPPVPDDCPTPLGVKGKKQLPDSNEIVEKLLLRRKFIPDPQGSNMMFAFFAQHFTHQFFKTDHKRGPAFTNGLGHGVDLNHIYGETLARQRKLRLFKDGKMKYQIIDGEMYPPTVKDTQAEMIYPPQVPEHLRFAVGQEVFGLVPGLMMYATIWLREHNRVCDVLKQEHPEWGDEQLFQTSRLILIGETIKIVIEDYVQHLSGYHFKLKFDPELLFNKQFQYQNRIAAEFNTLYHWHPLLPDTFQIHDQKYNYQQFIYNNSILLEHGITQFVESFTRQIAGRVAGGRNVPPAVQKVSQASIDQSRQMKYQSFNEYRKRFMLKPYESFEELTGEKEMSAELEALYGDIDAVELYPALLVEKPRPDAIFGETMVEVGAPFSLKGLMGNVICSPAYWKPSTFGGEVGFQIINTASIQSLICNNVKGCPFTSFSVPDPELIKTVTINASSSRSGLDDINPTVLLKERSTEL
In words: COX inhibitor screening assay in vitro, COX-2. The assay is classed as biochemical. As to conditions: for inhibition at 200 µM: 0.1 μM arachidonic acid, read-out: COX-2 (%) inhibition. The protocol: (§1) The COX-1 and COX-2 activities of the compounds were measured using ovine COX-1 and human recombinant COX-2 enzymes included in the “COX I inhibitor Screening Assay” kit provided by Cayman (Cayman Chemical Co., Ann Arbor, MI, USA). The assay directly measures PGF2 a produced by SnCl2 reduction of COX-derived PGH2. The prostanoid production was quantified via enzyme immunoassay using a broadly specific antibody that binds to all the major prostaglandin compounds. […]

Another assay deals with T2, soybean lipoxygenase (Glycine max, UniProt P08170).
T2 sequence (P08170 1-839): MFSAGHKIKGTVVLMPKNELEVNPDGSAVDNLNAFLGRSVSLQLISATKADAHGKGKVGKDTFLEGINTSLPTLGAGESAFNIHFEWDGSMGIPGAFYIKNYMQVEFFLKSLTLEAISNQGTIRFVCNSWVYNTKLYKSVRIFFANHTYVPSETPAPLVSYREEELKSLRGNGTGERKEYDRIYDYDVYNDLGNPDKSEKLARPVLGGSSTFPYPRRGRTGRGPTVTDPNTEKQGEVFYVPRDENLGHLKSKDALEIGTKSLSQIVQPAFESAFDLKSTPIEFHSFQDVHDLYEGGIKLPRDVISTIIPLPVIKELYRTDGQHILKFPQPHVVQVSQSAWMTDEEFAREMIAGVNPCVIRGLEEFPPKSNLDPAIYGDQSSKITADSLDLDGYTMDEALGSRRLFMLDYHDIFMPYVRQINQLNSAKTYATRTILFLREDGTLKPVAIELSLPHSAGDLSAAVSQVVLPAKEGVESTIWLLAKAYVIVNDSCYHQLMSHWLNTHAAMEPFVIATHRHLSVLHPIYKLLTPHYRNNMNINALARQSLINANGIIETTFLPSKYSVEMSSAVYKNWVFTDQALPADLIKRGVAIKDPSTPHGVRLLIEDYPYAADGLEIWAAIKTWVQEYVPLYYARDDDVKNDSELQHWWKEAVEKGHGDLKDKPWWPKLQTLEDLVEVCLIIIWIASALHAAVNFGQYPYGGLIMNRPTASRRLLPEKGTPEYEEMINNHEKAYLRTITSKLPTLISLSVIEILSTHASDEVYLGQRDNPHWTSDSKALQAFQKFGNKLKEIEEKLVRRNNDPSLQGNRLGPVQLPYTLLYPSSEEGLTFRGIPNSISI
In words: Soybean lipoxygenase inhibition in vitro. The assay is classed as biochemical. To be noted: 0.1 mM sodium linoleate, 234 nm. As to the method:
The compounds tested were dissolved in DMSO and preincubated for 4 min at 28 °C in the presence of 753 U/mL 5-soybean lipoxygenase (5-LOX). The enzyme reaction was triggered by addition of a final concentration of 0.1 mM sodium linoleate. The conversion of sodium linoleate 13-hydrouperoxylinoleic acid was measured at 234 nm. Absorbance was measured at time 0 and 3 min.

Another assay has as its target T3, ovine COX-1 (Ovis aries, UniProt P05979).
T3 construct: purchased Cayman Chemical Co., Ann Arbor, MI, USA
T3 sequence (P05979 25-600): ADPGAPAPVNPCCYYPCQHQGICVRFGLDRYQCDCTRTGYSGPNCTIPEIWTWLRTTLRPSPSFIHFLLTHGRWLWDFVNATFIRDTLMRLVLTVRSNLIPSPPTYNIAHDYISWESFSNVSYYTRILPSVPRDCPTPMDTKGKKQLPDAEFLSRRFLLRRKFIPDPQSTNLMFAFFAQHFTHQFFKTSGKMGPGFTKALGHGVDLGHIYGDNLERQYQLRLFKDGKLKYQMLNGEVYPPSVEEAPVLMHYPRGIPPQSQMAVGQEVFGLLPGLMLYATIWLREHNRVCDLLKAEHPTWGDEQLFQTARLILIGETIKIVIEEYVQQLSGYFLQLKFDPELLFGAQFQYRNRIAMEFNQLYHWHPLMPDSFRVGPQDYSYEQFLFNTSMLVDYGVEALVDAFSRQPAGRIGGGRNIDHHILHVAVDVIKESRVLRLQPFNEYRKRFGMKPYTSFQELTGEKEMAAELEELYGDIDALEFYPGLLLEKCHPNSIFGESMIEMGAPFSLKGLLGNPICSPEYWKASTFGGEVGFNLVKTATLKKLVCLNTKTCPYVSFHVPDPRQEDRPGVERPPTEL
In words: COX inhibitor screening assay in vitro, COX-1. The assay is classed as biochemical. To be noted: at 200 μM; 0.1 μM arachidonic acid; read-out: COX-1 (%) inhibition. The protocol: as §1

Assay [1] concerns carrageenin-induced mouse paw edema. In words: Carrageenin-induced mouse paw edema (CPE), in vivo anti-inflammatory activity. To be noted: Mus musculus, ip, mice, 0.01 mmol/kg body weight intraperitoneally, given simultaneously with carrageenin (2%, 0.05 mL). The protocol:
The in vivo anti-inflammatory effect of the tested compounds was assessed by using the functional model of carrageenin-induced mouse paw edema and is presented as the percentage of inhibition of induction of edema at the right hind paw (Table 1).
Edema was measured by weight increase of the right hind paw in comparison to the […] left paw.
Twenty-five thiazolo[3,2-b]1,2,4-triazole derivatives, previously synthesized were evaluated for their anti-inflammatory activity, in vivo using groups of 6–10 mice of R’’’ strain.
The anti-inflammatory activity of the compounds synthesized was studied with the Carragenin-Induced Paw Edema acute inflammation test using an aqueous carrageenin solution (2%, 0,05 mL), [14] which was injected intradermally in the footpad of the right hind limb muscle (mice R’’’ groups of 6–10 animals), whereas the left end serves as a reference. In the experimental procedure both sex male mice were used, excluding pregnant. Animals were fasted during the time of the experiment. The tested compounds (0.01 mmol/kg body weight), were suspended in water, with few drops of Tween 80 and ground in a mortar before use and were given intraperitoneally simultaneously with the carrageenin injection.
In general terms: The carrageenan paw model is a standard test of acute inflammation.

Usually IC50 stands for the concentration needed to halve the response being measured. A word on the inhibition: it is the percentage by which the read-out fell short of the control. In general, inhibition in vivo refers to how much of the control response was suppressed. Higher therefore signals a strong effect.

Each structure is given as a SMILES string. Bounds are passed on as bounds.

For the molecule `O=c1/c(=C/c2cccc(O)c2)sc2nc(C34CC5CC(CC(C5)C3)C4)nn12` [Compound 2], on human recombinant COX-2, the IC50 is over 50 µM and the inhibition at 200 µM was 64%. At soybean lipoxygenase, the “LOX (%) inhibition” value turned out to be 5.82%. Besides, the inhibition at 200 µM on ovine COX-1 turned out to be 18%. Also, in assay [1], the inhibition in vivo at 10 µmol/kg stood at 36%.
`O=c1/c(=C/c2ccc(F)cc2)sc2nc(C34CC5CC(CC(C5)C3)C4)nn12` [Compound 16]: the inhibition at 200 µM on human recombinant COX-2 was determined as 0%; on ovine COX-1, 19%. Moreover, the “LOX (%) inhibition” value at soybean lipoxygenase stood at 16.13%. Further, in assay [1], the inhibition in vivo at 10 µmol/kg lay in the range of 51 to 67%.

Source of the values: article PMC7866232, “New Substituted 5-Benzylideno-2-Adamantylthiazol[3,2-b][1,2,4]Triazol-6(5H)ones as Possible Anti-Inflammatory Agents” (Molecules, 2021).
